# Values of other authors in patent US20220273652A1, “PHARMACEUTICAL COMPOSITION COMPRISING HMG-COA REDUCTASE INHIBITORS AND FENOFIBRATE” (INTAS PHARMACEUTICALS LTD., priority 2019, published 2022).
# Tested on: cytochrome P450
# Conditions: human hepatocytes
compound,measurement,value
"CC(C)c1nc(N(C)S(C)(=O)=O)nc(-c2ccc(F)cc2)c1/C=C/[C@@H](O)C[C@@H](O)CC(=O)O [rosuvastatin, bis[(E)-7-[4(4-fluorophenyl)-6-isopropyl-2-[methyl(methylsulfonyl)amino]-pyrimidin-5-yl](3R,5S)-3,5dihydroxyhept-6-enoic acid]]",Substrate for cytochrome P450-based metabolism,poor substrate
